1 molecule from US12577273B2, “Small molecule modulators of gut bacterial bile acid metabolism” (priority 2019, dated 2026) can be followed below.

Values joined by “and” are separate entries in the source; they are usually repeats but may differ in a detail not shown here. Identical values can stand only once. “Also recorded” adds a separate entry of the source. Like-named read-outs stand apart in the source and are kept apart here. Bounds are passed on as bounds.

The term inhibition denotes the drop in the measured response relative to a control, in per cent.

Data set [1] addresses T1, B. theta BSH (Bacteroides thetaiotaomicron, UniProt Q8A600). Briefly: Inhibitor screen using rBSH, B. theta BSH (UPLC-MS % deconjugation).
The next data set has as its system B. theta cultures. Briefly: BSH inhibition in growing B. theta cultures, single substrate (GUDCA or TUDCA). The format is cell-based, Bacteroides thetaiotaomicron. The conditions noted are these: 10 μM inhibitor, 100 μM GUDCA.
Data set [2] relates to differentiated Caco-2 cells.
The subject of data set [3] is BSH activity in conventional mouse feces. Briefly: Screen of inhibitors in conventional mouse feces. The conditions noted are these: 20 μM inhibitor, 30 min, then GCDCA-d4 100 μM, 18 hours. The class given is biochemical. The procedure:
Screen of Inhibitors in Conventional Mouse Feces. […] The tubes were then frozen in dry ice for 5 mins and upon thawing were diluted with an equal volume of methanol. […] The supernatant was removed into a clean eppendorf tube and centrifuged again. […] The concentration of product detected from these assays was reported directly.

The next data set deals with T2, B. longum BSH (Bifidobacterium longum, UniProt Q9KK62).
T2 sequence (Q9KK62 1-317): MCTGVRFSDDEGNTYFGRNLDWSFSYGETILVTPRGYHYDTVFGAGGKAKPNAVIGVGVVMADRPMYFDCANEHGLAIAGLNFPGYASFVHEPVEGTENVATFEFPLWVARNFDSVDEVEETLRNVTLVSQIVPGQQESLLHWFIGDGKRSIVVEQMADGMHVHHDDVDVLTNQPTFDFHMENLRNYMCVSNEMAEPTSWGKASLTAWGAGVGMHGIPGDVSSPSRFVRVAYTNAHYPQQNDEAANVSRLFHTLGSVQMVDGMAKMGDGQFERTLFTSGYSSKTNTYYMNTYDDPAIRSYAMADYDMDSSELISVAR
Briefly: Inhibitor screen using rBSH, B. longum BSH (UPLC-MS % deconjugation). The format is biochemical, Bifidobacterium longum SBT2928. On the set-up: His6 (C); made in house; host or cells: Escherichia coli (as for the B. theta enzyme). The conditions noted are these: 100 μM inhibitor; 2 h, 5 h and 21 h timepoints. As to the method:
B. longum rBSH. Recombinant BSH from B. longum SBT2928 was expressed and purified as above, except 0.25 mM IPTG was used for protein expression and 1 mM TCEP for protein purification.
Inhibitor Screen Using rBSHs.

The next data set relates to C57BL/6 mice. The format is in vivo, mouse. The conditions noted are these: single gavage 10 mg/kg; for BSH activity in feces: 1 day and 1.5 days post-gavage. The procedure:
Mice were split into two groups of four mice each and were gavaged with either 200 μL of corn oil containing 5% DMSO (vehicle group) or with 200 μL of corn oil containing 7 at a concentration of 1.25 mg/mL (experimental group). For the fecal pellet collection, each mouse was transferred to a temporary cardboard cage for a few minutes until it defecated.
Quantification of Bile Acids in Tissues and Plasma.
Determination of Microbial Biomass by Plating. Frozen fecal pellets were used to determine colony forming units (CFU/g). Feces were suspended in PBS buffer in an anaerobic chamber. Serial dilutions were plated on CHG agar plates (see “Bacterial Culturing”) and incubated at 37° C.
Isolation of Fecal Bacterial Microbiota and 16S rRNA Gene Sequencing Analysis. Mouse fecal microbiota DNA was isolated by using ZymoBIOMICS 96 DNA Kit (ZymoBIOMICS™) according to the manufacturer's instructions. […]
Gel electrophoresis was used to check the success of PCR amplification. The concentration of the PCR product was measured by the Quan-IT dsDNA high sensitivity assay. ˜120 ng of DNA of each PCR product was pooled together to generate an aggregated library for downstream processing. PCR DNA amplicons between 300-500 bp were selected from the aggregated library on a targeted size selection platform (pippin prep 1.5% agarose cassette from Sage Sciences) according to the manufacturer's instructions. The size of DNA amplicons was characterized on an Agilent Technologies 2100 bioanalyzer trace. DNA concentration of the aggregated library was measured by the Quant-IT dsDNA high sensitivity assay. […] 600 ul of the denatured and diluted library with 20% phiX spike-in (120 ul, 7.5 pM of phiX) was loaded onto the MiSeq V2 reagent cartridge (Illumina) and was sequenced with paired-end 250 bp reads using the custom primers described above. […] The resulting FASTQ sequences were then quality-filtered and analyzed by following QIIME_mothur_DADA2.^56-59 Operational Taxonomic Units (OTUs) were picked with 97% sequence similarity. […]

A further data set concerns L. plantarum. Briefly: Inhibitor screen in bacteria, L. plantarum culture. The format is cell-based, Lactobacillus plantarum WCFS1. The conditions noted are these: FIG. 2c, L. plantarum culture; 100 μM inhibitor, 100 μM bile acid pool, 21 h; replicates 1-3.
Data set [4] addresses T1, B. theta BSH. In words: Mass spectrometry analysis for identifying labeled residue on BSH. The class given is binding. The procedure: Mass Spectrometry Analysis for Identifying Labeled Residue on BSH. BSH protein was incubated with DMSO or a 10-fold molar excess of inhibitor 7 for 2 h at room temperature. Reactions were then analyzed by LC-MS using a Shimadzu LC and autosampler system (Shimadzu, Marlborough, MA) interfaced to an LTQ ion trap mass spectrometer (ThermoFisher Scientific, San Jose, CA).
To determine the site of modification, compound 7 modified protein was analyzed as described above, except that the LC system was interfaced to an Orbitrap Lumos Mass Spectrometer (ThermoFisher Scientific). […] Ion assignments were performed using mzStudio software.^50

Data set [5] deals with T1, B. theta BSH. Briefly: Compound 7 kinetic studies (time to complete inhibition). The format is biochemical. As to the method:
Formation of deconjugated bile acid was measured using a UPLC-MS-based assay and reported as % conversion.
Compound 7 Kinetic Studies. […] B. theta BSH (200 nM) was added to a pool of 100 μM bile acid pool and 100 μM 7. 500 μL aliquots were removed at indicated time points and flash frozen in liquid nitrogen. […] Procedure was repeated with 8.2 mM TUDCA.

[6] abbreviates: Supplementary FIG. 3a, 5 hours, 100 μM inhibitor, 200 nM rBSH, bile acid pool, replicates 1-3.

In the case of `C[C@H](CCC(=O)CF)[C@H]1CC[C@H]2[C@@H]3[C@H](O)C[C@@H]4C[C@H](O)CC[C@]4(C)[C@H]3CC[C@]12C` [Compound 7], the “% deconjugation of TβMCA” value at B. theta BSH [1] (FIG. 2a, 2 hours, 100 μM inhibitor, 200 nM rBSH, bile acid pool, replicates 1-3) is 0.00%; on B. theta BSH [1] (FIG. 2a, 21 hours, 100 μM inhibitor, 200 nM rBSH, bile acid pool, replicates 1-3), 0.00%; at B. theta BSH [1] (setting [6]) it was 0.00%; in the data set with L. plantarum, 0.15% and 0.49% and 0.62%. The “% deconjugation of TCA” value was 0.00% at B. theta BSH [1] (setting [6]); 0.77% and 0.93% and 1.02% in the data set with L. plantarum. Besides, the inhibition at 100 µM on B. theta BSH [1] (read-out: inhibition of B. theta BSH activity for 21 hours) is over 98%. In the data set on B. theta cultures, the “deconjugation of GUDCA in growing B. theta cultures (in words)” value is given as “nearly complete inhibition of deconjugation”. The “epithelial monolayer integrity (passive diffusion of 4 kDa FITC-dextran)” value in [2] is “did not compromise epithelial monolayer integrity”. The “BSH activity in resuspended conventional mouse feces (in words)” value in data set [3] is recorded as “completely inhibited BSH activity in feces”; in data set [3] (listed as compound 7), “effectively inhibited BSH activity; also recorded: completely inhibited the BSH activity in feces; also recorded: almost completely inhibited BSH activity”. Besides, at B. longum BSH, the “inhibition of B. longum BSH (in words)” value is recorded as “most potent inhibitor; also recorded: most active inhibitor”. Besides, the “BSH activity in feces” value is listed as “significant decrease in BSH activity in feces” with C57BL/6 mice (10 mg/kg) and “significantly lower” in the data set on C57BL/6 mice (listed as compound 7, 10 mg/kg). The “fecal deoxycholic acid (DCA)” value in the data set on C57BL/6 mice (1 day post-gavage) is given as “a decrease in the deconjugated secondary bile acid deoxycholic acid (DCA) was observed”. Moreover, the “% deconjugation of TDCA” value with L. plantarum is 3.22% and 0.62% and 0.64%. Besides, the “% deconjugation of TUDCA” value with L. plantarum was 1.46% and 0.97% and 1.32%. In addition, the “modified residue of B. theta BSH (top-down MS)” value at B. theta BSH [4] (10-fold excess of compound 7) was “Cys2”. Further, at B. theta BSH [4] (10-fold excess of compound 7, 2 h), the “shift in mass of BSH after treatment” value stood at 388 Da. Also, the “shift in the intact mass of the protein” value on B. theta BSH [4] (incubation of B. theta BSH with compound 7) came out at 388 mass units. For the same molecule, on B. theta BSH [5] (100 μM 7 equimolar to substrate, no preincubation), the “time to complete inhibition of B. theta BSH” value was at most 15 s. Moreover, the “time to entire inhibition of B. theta BSH activity” value on B. theta BSH [5] (large excess (~80-fold) of substrate (8.2 mM TUDCA)) is at most 15 min.
